pIC50: −log10 of the molar value.
molecular target: T1, Son of sevenless homolog 1 [564-1049]/GTPase KRas [G12C] (UniProt P01116+Q07889, G12C); test: Evaluation of Inhibitory Activity of Compounds on KRAS G12C Nucleotide (GDP-GTP) Exchange Reaction
T1 construct: 564-1049
Experimental: The inhibitory activity of compounds on exchange reaction of GDP into GppNHp in Bodipy (trademark) FL-bound KRAS G12C was examined by fluorescence measurement using human recombinant KRAS G12C and SOS1 proteins.For the preparation of KRAS G12C to which Bodipy FL GDP was bound, first, […] KRAS G12C (amino acid region: 1-169) and 1 mM Bodipy FL GDP (Invitrogen, G22360) were incubated for 1 hour in a buffer (20 mM Tris-HCl (pH 7.5), 50 mM NaCl, 1 mM DTT) in ice in the presence of 2.5 mM EDTA. Thereafter, MgCl2 with a final concentration of 10 mM was added, and the mixture was incubated at room temperature for 30 minutes. The protein was allowed to pass through a NAP-5 column to remove free nucleotides and was used for compound evaluation.For the measurement of the inhibitory activity of compounds on nucleotide exchange reaction, first, the compound of the present invention was diluted stepwise with dimethyl sulfoxide (DMSO). Subsequently, a solution of the gradually diluted compound of the present invention in DMSO (the final concentration of DMSO: 5%) and KRAS G12C (25 nM) bound to Bodipy FL GDP were added to a reaction buffer (20 mM Tris-HCl (pH 7.5), 100 mM NaCl, 1 mM MgCl2, 2 mM DTT, 0.1% Tween20), followed by preincubation at 25° C. for 4 hours. Thereafter, Son of Sevenless Homolog 1 (SOS1, amino acid region: 564-1049) and GppNHp (GMPPNP, Jena Bioscience GmbH, NU-401-50) were added such that their final concentration was 100 nM and 1 μM respectively, followed by reaction for 30 minutes. The change in fluorescence intensity of Bodipy FL (excitation wavelength: 485 nm, fluorescence wavelength: 520 nm) immediately after the start of reaction and after 30 minutes from the start of reaction was standardized. The signal value for only DMSO was determined to be 0% inhibition, and the signal value for no addition of GppNHp was determined to be 100% inhibition. The compound concentration at which 50% inhibition is achieved was determined to be IC50 (nM), and was calculated.

T1 sequence (P01116 whole entry G12C): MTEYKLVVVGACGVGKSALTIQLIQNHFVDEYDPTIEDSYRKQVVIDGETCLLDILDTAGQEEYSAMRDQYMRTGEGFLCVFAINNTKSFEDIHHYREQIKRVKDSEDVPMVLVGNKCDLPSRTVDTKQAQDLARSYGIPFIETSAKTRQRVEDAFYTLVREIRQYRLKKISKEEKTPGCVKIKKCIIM
T1 sequence (Q07889 564-1049): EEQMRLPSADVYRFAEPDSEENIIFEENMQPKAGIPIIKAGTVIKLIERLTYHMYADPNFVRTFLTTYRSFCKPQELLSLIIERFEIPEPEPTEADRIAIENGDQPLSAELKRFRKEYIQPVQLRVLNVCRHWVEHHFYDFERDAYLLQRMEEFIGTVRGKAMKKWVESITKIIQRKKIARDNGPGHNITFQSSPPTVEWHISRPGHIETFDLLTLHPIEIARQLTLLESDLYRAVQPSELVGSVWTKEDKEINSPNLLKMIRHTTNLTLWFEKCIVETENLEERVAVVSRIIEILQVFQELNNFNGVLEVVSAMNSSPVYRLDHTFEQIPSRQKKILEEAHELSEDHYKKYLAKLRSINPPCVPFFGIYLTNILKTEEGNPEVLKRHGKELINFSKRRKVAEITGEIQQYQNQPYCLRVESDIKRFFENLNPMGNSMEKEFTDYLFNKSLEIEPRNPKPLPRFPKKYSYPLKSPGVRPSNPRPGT

`C=CC(=O)N1CC(NC(=O)c2c(Cl)nc(CNc3n[nH]c4cc(Cl)c(C(C)(C)C)cc34)n2[C@@H]2C[C@@H](C)N(CC(F)F)C2)C1` [US12065430, Example 126] was tested. Which pIC50 did it give?
Its pIC50 is 8.40.

`C=CC(=O)N1CC(NC(=O)c2c(Cl)nc(CNc3n[nH]c4cc(Cl)c(C(C)(C)C)cc34)n2C2CCCN(CC(F)F)C2)C1` (stereo not drawn) [US12065430, Example 117] was tested. Which pIC50 did it give?
The pIC50 was 8.05.

How did the pIC50 turn out when `Cc1nc(CNc2n[nH]c3cc(Cl)c(C(C)(C)C)cc23)n(C(C)C)c1C(=O)NC1CN(C(=O)/C=C\Cl)C1` [US12065430, Example 83] was run?
The pIC50 was 5.63.

With `C=CC(=O)N1CC(NC(=O)c2c(C)nc(CNc3n[nH]c4cc(Cl)c(C(C)(C)C)cc34)n2C(C)C)C1` [US12065430, Example 13] as the compound, how does the pIC50 read?
Its pIC50 is 7.82.

With `C=CC(=O)N1CC(NC(=O)c2c(Cl)nc(CNc3n[nH]c4cc(Cl)c(C(C)(C)C)cc34)n2-c2ccccn2)C1` [US12065430, Example 94] as the compound, how does the pIC50 read?
Its pIC50 is 6.93.

`C=CC(=O)N1CC(NC(=O)c2c(C(F)(F)F)nc(CNc3n[nH]c4cc(Cl)c(C(C)(C)C)cc34)n2C(C)C)C1` [US12065430, Example 32] was tested. Which pIC50 did it give?
Its pIC50 is 7.30.

With `C=CC(=O)N1CC(NC(=O)c2cnc(CNc3n[nH]c4cc(Cl)c(C=C)cc34)n2C)C1` [US12065430, Example 38] as the compound, how does the pIC50 read?
Its pIC50 is 5.66.

With `C=CC(=O)N1C[C@H](NC(=O)c2c(C)nc(CNc3n[nH]c4cc(Cl)c(C(C)(C)C)cc34)n2C)C2(CC2)C1` [US12065430, Example 54] as the compound, how does the pIC50 read?
Its pIC50 is 6.52.

`C=CC(=O)N1CC(NC(=O)c2c(C)nc(CNc3n[nH]c4cc(C)c(C(C)(C)C)cc34)n2C)C1` [US12065430, Example 41] was tested. Which pIC50 did it give?
Its pIC50 is 7.85.

`C=CC(=O)N1CC(NC(=O)c2c(Cl)nc(CNc3n[nH]c4cc(Cl)c(C(C)(C)C)cc34)n2[C@H]2C[C@H](C)CC[C@H]2C(C)C)C1` [US12065430, Example 111] was tested. Which pIC50 did it give?
Its pIC50 is 7.82.

`C=CC(=O)N1CC(NC(=O)c2c(Cl)nc(CNc3n[nH]c4cc(Cl)c(C(C)(C)C)cc34)n2[C@@H]2CCN(CC(F)F)[C@H]2C)C1` [US12065430, Example 125] was tested. Which pIC50 did it give?
Its pIC50 is 7.89.

How did the pIC50 turn out when `C=CC(=O)N1C[C@H](NC(=O)c2c(F)nc(CNc3n[nH]c4cc(Cl)c(C(C)(C)C)cc34)n2C)[C@@H](F)C1` [US12065430, Example 75] was run?
Its pIC50 is 7.80.

`C=CC(=O)N1CC(NC(=O)c2c(Cl)c(CNc3n[nH]c4cc(Cl)c(C(C)(C)C)cc34)nn2C)C1` [US12065430, Example 6] was tested. Which pIC50 did it give?
Its pIC50 is 6.10.

With `C=CC(=O)N1CC(NC(=O)c2c(C(F)F)nc(CNc3n[nH]c4cc(Cl)c(C(C)(C)C)cc34)n2CC2CCCN2C(C)C)C1` (stereo not drawn) [US12065430, Example 95] as the compound, how does the pIC50 read?
The pIC50 was 7.36.

How did the pIC50 turn out when `C=CC(=O)N1CC(NC(=O)c2c(Cl)nc(CNc3n[nH]c4cc(Cl)c(C(=C)C(F)(F)F)cc34)n2C(C)C)C1` [US12065430, Example 43] was run?
Its pIC50 is 6.09.

`C=CC(=O)N1CC(NC(=O)c2c(Cl)nc(CNc3n[nH]c4cc(Cl)c(C(C)(C)C)cc34)n2[C@@H]2CCN(CCOC)C2)C1` [US12065430, Example 119] was tested. Which pIC50 did it give?
The pIC50 was 7.96.

`C=CC(=O)N1CC(NC(=O)c2c(Cl)nc(CNc3n[nH]c4cc(Cl)c(C(C)(C)C)cc34)n2C2CCN(C)CC2)C1` [US12065430, Example 103] was tested. Which pIC50 did it give?
Its pIC50 is 8.30.

With `C=CC(=O)N1CC(NC(=O)c2c(C)nc(CNc3n[nH]c4cc(Cl)c(C(C)(C)C)cc34)n2C(C)(C)C)C1` [US12065430, Example 24] as the compound, how does the pIC50 read?
The pIC50 was 7.46.

With `C=CC(=O)N1CC(NC(=O)c2c(C)nc(CNc3n[nH]c4cc(Cl)c(C(C)(C)C)cc34)n2C2CC2)C1` [US12065430, Example 23] as the compound, how does the pIC50 read?
Its pIC50 is 8.15.

With `C=CC(=O)N1C[C@@H](CN(C)C)[C@@H](NC(=O)c2c(C)nc(CNc3n[nH]c4cc(Cl)c(C(C)(C)C)cc34)n2C)C1` [US12065430, Example 68] as the compound, how does the pIC50 read?
Its pIC50 is 7.00.

How did the pIC50 turn out when `C=CC(=O)N(C)C1CN(C(=O)c2c(C)nc(CNc3n[nH]c4cc(Cl)c(C(C)(C)C)cc34)n2C)C1` [US12065430, Example 51] was run?
The pIC50 was 7.38.

`C=CC(=O)N1CC(NC(=O)c2c(C)c(CNc3n[nH]c4cc(Cl)c(C(C)(C)C)cc34)nn2C)C1` [US12065430, Example 10] was tested. Which pIC50 did it give?
The pIC50 was 6.89.

With `C=CC(=O)N1CC(NC(=O)c2c(Cl)nc(CNc3n[nH]c4cc(Cl)c(C(C)(C)C)cc34)n2C2CCCOC2)C1` (stereo not drawn) [US12065430, Example 104] as the compound, how does the pIC50 read?
Its pIC50 is 8.05.

— BindingDB's records for patent US12065430 (Taiho Pharmaceutical, 2024)
